# Patent publication US12692238B2, “Substituted pyridazinone herbicides” (FMC CORPORATION, priority 2020, dated 2026)
# Experiments:
# Assay type in all cases: in vivo
# [1] = test system: barnyardgrass (Echinochloa crus-galli); assay: Test A preemergence, barnyardgrass; conditions: 10 days
# Text: (§1) Seeds of plant species selected from barnyardgrass (Echinochloa crus-galli), blackgrass (Alopecurus myosuroides), corn (Zea mays), foxtail, giant (giant foxtail, Setaria faberi), foxtail, green (green foxtail, Setaria viridis), goosegrass (Eleusine indica), kochia (Bassia scoparia), oat, wild (wild oat, Avena fatua), palmer amaranth (pigweed, palmer, Amaranthus palmeri), redroot pigweed (Amaranthus retroflexus), ragweed (common ragweed, Ambrosia artemisiifolia), ryegrass, Italian (Italian ryegrass, Lolium multiflorum), and soybean (Glycine max) were planted into a blend of loam soil and sand and treated preemergence with a directed soil spray using test chemicals formulated in a non-phytotoxic solvent mixture which included a surfactant.
# (§2) At the same time, plants selected from these crop and weed species and also wheat (Triticum aestivum), galium (catchweed bedstraw, Galium aparine) and horseweed (Erigeron canadensis) were planted in pots containing the same blend of loam soil and sand and treated with postemergence applications of test chemicals formulated in the same manner. Plants ranged in height from 2 to 10 cm and were in the one- to two-leaf stage for the postemergence treatment. Treated plants and untreated controls were maintained in a greenhouse for 10 days, after which time all treated plants were compared to untreated controls and visually evaluated for injury. Plant response ratings, summarized in Table A, are based on a 0 to 100 scale where 0 is no effect and 100 is complete control. A dash (-) response means no test result.
# [2] = test system: foxtail, giant (giant foxtail, Setaria faberi); assay: Test A preemergence, foxtail, giant; conditions: 0 to 100 scale, 10 days
# Text: as §1, §2
# kochia (Bassia scoparia) [3] = assay: Test A preemergence, kochia; conditions: 0 to 100 scale, 10 days
# Text: as §1, §2
# [4] = test system: redroot pigweed (Amaranthus retroflexus); assay: Test A preemergence, redroot pigweed; conditions: 0 to 100 scale, 10 days
# Text: as §1, §2
# [5] = test system: ragweed (common ragweed, Ambrosia artemisiifolia); assay: Test A preemergence, ragweed; conditions: 0 to 100 scale, 10 days
# Text: as §1, §2
# [6] = test system: ryegrass, Italian (Italian ryegrass, Lolium multiflorum); assay: Test A preemergence, ryegrass, Italian; conditions: 0 to 100 scale, 10 days
# Text: as §1, §2
# [7] = test system: barnyardgrass (Echinochloa crus-galli); assay: Test A postemergence, barnyardgrass; conditions: 10 days
# Text: as §1, §2
# [8] = test system: blackgrass (Alopecurus myosuroides); assay: Test A postemergence, blackgrass; conditions: 10 days
# Text: as §1, §2
# corn (Zea mays) = assay: Test A postemergence, corn; conditions: 10 days
# Text: as §1, §2
# [9] = test system: foxtail, giant (giant foxtail, Setaria faberi); assay: Test A postemergence, foxtail, giant; conditions: 10 days
# Text: as §1, §2
# kochia (Bassia scoparia) [10] = assay: Test A postemergence, kochia; conditions: 10 days
# Text: as §1, §2
# [11] = test system: redroot pigweed (Amaranthus retroflexus); assay: Test A postemergence, redroot pigweed; conditions: 10 days
# Text: as §1, §2
# [12] = test system: ragweed (common ragweed, Ambrosia artemisiifolia); assay: Test A postemergence, ragweed; conditions: 10 days
# Text: as §1, §2
# [13] = test system: ryegrass, Italian (Italian ryegrass, Lolium multiflorum); assay: Test A postemergence, ryegrass, Italian; conditions: 10 days
# Text: as §1, §2
# [14] = test system: wheat (Triticum aestivum); assay: Test A postemergence, wheat; conditions: 10 days
# Text: as §1, §2
# [15] = test system: galium (catchweed bedstraw, Galium aparine); assay: Test A postemergence, galium; conditions: 10 days
# Text: as §1, §2
# [16] = test system: barnyardgrass (Echinochloa crus-galli); assay: Test B flooded paddy test, barnyardgrass; conditions: 250 g ai/ha, Flood; visually evaluated after 10 to 14 days
# Description: (§3) Plant species in the flooded paddy test selected from barnyardgrass (Echinochloa crus-galli), ducksalad (Heteranthera limosa), rice (Oryza sativa), and sedge, umbrella (small-flower umbrella sedge, Cyperus difformis) were grown to the 2-leaf stage for testing. At time of treatment, test pots were flooded to 3 cm above the soil surface, treated by application of test compounds directly to the paddy water, and then maintained at that water depth for the duration of the test. Treated plants and controls were maintained in a greenhouse for 10 to 14 days, after which time all species were compared to controls and visually evaluated. Plant response ratings, summarized in Table B, are based on a scale of 0 to 100 where 0 is no effect and 100 is complete control. A dash (-) response means no test result.
# [17] = test system: ducksalad (Heteranthera limosa); assay: Test B flooded paddy test, ducksalad; conditions: 250 g ai/ha, Flood; visually evaluated after 10 to 14 days
# Description: as §3
# rice (Oryza sativa) = assay: Test B flooded paddy test, rice; conditions: 250 g ai/ha, Flood; visually evaluated after 10 to 14 days
# Description: as §3
# [18] = test system: sedge, umbrella (small-flower umbrella sedge, Cyperus difformis); assay: Test B flooded paddy test, sedge, umbrella; conditions: 250 g ai/ha, Flood; visually evaluated after 10 to 14 days
# Description: as §3
# [19] = 125 g ai/ha, 0 to 100 scale (0 no effect, 100 complete control)
# [20] = Postemergence, 31 g ai/ha, 0 to 100 scale
# [21] = Postemergence, 125 g ai/ha, 0 to 100 scale
# [22] = 31 g ai/ha, postemergence, 0 to 100 scale (0 no effect, 100 complete control)
smiles,measurement,setting,value
CC(=O)OCOc1c(C)nn(C)c(=O)c1-c1c2ccccc2c(Br)c2ccccc12 [Compound 14],"Plant response rating, Barnyardgrass","[1]; 31 g ai/ha, 0 to 100 scale",10
same,"Plant response rating, Barnyardgrass",[1]; [19],80
same,"Plant response rating, Foxtail, Giant",[2]; 31 g ai/ha,60
same,"Plant response rating, Foxtail, Giant",[2]; 125 g ai/ha,100
same,"Plant response rating, Kochia",kochia (Bassia scoparia) [3]; 31 g ai/ha,20
same,"Plant response rating, Kochia",kochia (Bassia scoparia) [3]; 125 g ai/ha,30
same,"Plant response rating, Pigweed, Redroot",[4]; 31 g ai/ha,100
same,"Plant response rating, Pigweed, Redroot",[4]; 125 g ai/ha,100
same,"Plant response rating, Ragweed",[5]; 31 g ai/ha,90
same,"Plant response rating, Ragweed",[5]; 125 g ai/ha,100
same,"Plant response rating, Ryegrass, Italian",[6]; 31 g ai/ha,80
same,"Plant response rating, Ryegrass, Italian",[6]; 125 g ai/ha,100
same,"Plant response rating, Barnyardgrass",[7]; [20],30
same,"Plant response rating, Barnyardgrass",[7]; [21],80
same,"Plant response rating, Blackgrass",[8]; [20],20
same,"Plant response rating, Blackgrass",[8]; [21],30
same,"Plant response rating, Corn",corn (Zea mays); [20],0
same,"Plant response rating, Corn",corn (Zea mays); [21],0
same,"Plant response rating, Foxtail, Giant",[9]; [20],30
same,"Plant response rating, Foxtail, Giant",[9]; [21],90
same,"Plant response rating, Kochia",kochia (Bassia scoparia) [10]; [22],30
same,"Plant response rating, Kochia",kochia (Bassia scoparia) [10]; [21],60
same,"Plant response rating, Pigweed, Redroot",[11]; [22],100
same,"Plant response rating, Pigweed, Redroot",[11]; [21],100
same,"Plant response rating, Ragweed",[12]; [22],90
same,"Plant response rating, Ragweed",[12]; [21],100
same,"Plant response rating, Ryegrass, Italian",[13]; [22],80
same,"Plant response rating, Ryegrass, Italian",[13]; [21],100
same,"Plant response rating, Wheat",[14]; [22],0
same,"Plant response rating, Wheat",[14]; [21],40
same,"Plant response rating, Galium",[15]; [22],100
same,"Plant response rating, Galium",[15]; [21],100
same,"Plant response rating, Barnyardgrass (0 to 100 scale where 0 is no effect and 100 is complete control)",[16],20
same,"Plant response rating, Ducksalad (0 to 100 scale where 0 is no effect and 100 is complete control)",[17],80
same,"Plant response rating, Rice (0 to 100 scale where 0 is no effect and 100 is complete control)",rice (Oryza sativa),0
same,"Plant response rating, Sedge, Umbrella (0 to 100 scale where 0 is no effect and 100 is complete control)",[18],90
CC(=O)OCOc1c(C)nn(C)c(=O)c1-c1c2cc(C)ccc2cc2c(F)cc(C)cc12 [Compound 29],"Plant response rating, Barnyardgrass","[1]; 31 g ai/ha, 0 to 100 scale",0
same,"Plant response rating, Barnyardgrass",[1]; [19],70
same,"Plant response rating, Foxtail, Giant",[2]; 31 g ai/ha,0
same,"Plant response rating, Foxtail, Giant",[2]; 125 g ai/ha,20
same,"Plant response rating, Kochia",kochia (Bassia scoparia) [3]; 31 g ai/ha,20
same,"Plant response rating, Kochia",kochia (Bassia scoparia) [3]; 125 g ai/ha,100
same,"Plant response rating, Pigweed, Redroot",[4]; 31 g ai/ha,100
same,"Plant response rating, Pigweed, Redroot",[4]; 125 g ai/ha,100
same,"Plant response rating, Ragweed",[5]; 31 g ai/ha,90
same,"Plant response rating, Ragweed",[5]; 125 g ai/ha,90
same,"Plant response rating, Ryegrass, Italian",[6]; 31 g ai/ha,0
same,"Plant response rating, Ryegrass, Italian",[6]; 125 g ai/ha,60
same,"Plant response rating, Barnyardgrass",[7]; [22],20
same,"Plant response rating, Barnyardgrass",[7]; [21],90
same,"Plant response rating, Blackgrass",[8]; [22],0
same,"Plant response rating, Blackgrass",[8]; [21],20
same,"Plant response rating, Corn",corn (Zea mays); [22],0
same,"Plant response rating, Corn",corn (Zea mays); [21],0
same,"Plant response rating, Foxtail, Giant",[9]; [22],20
same,"Plant response rating, Foxtail, Giant",[9]; [21],20
same,"Plant response rating, Kochia",kochia (Bassia scoparia) [10]; [22],60
same,"Plant response rating, Kochia",kochia (Bassia scoparia) [10]; [21],100
same,"Plant response rating, Pigweed, Redroot",[11]; [22],100
same,"Plant response rating, Pigweed, Redroot",[11]; [21],100
same,"Plant response rating, Ragweed",[12]; [22],100
same,"Plant response rating, Ragweed",[12]; [21],100
same,"Plant response rating, Ryegrass, Italian",[13]; [22],40
same,"Plant response rating, Ryegrass, Italian",[13]; [21],60
same,"Plant response rating, Wheat",[14]; [22],0
same,"Plant response rating, Wheat",[14]; [21],0
same,"Plant response rating, Galium",[15]; [22],90
same,"Plant response rating, Galium",[15]; [21],100
same,"Plant response rating, Barnyardgrass (0 to 100 scale where 0 is no effect and 100 is complete control)",[16],55
same,"Plant response rating, Ducksalad (0 to 100 scale where 0 is no effect and 100 is complete control)",[17],95
same,"Plant response rating, Rice (0 to 100 scale where 0 is no effect and 100 is complete control)",rice (Oryza sativa),0
same,"Plant response rating, Sedge, Umbrella (0 to 100 scale where 0 is no effect and 100 is complete control)",[18],98
